This is an account of results in paper PMC9609996, “SAR Study and Molecular Mechanism Investigation of Novel Naphthoquinone-furan-2-cyanoacryloyl Hybrids with Antitumor Activity” (Pharmaceutics, 2022).

One assay has as its system HeLa cells. Put plainly: Cell cycle analysis by flow cytometry. Type of assay: cell-based, human. Particulars: 12 μM; 24 h; 10.19% at 0 μM. How it is done:
To investigate the effect of compound 5c on the cell cycle distribution, a flow cytometric analysis was performed. HeLa cells were treated with 5c at concentrations of 0 μM, 6 μM, 9 μM, and 12 μM for 24 h and then subjected to a flow cytometric analysis after DNA staining. […] Accordingly, treatment of HeLa cells with 5c induced a G2/M phase arrest of cell cycle progression.
For the cell cycle analysis, HeLa cells seeded in a 6-well plate (3 × 10^5 per well) were incubated with different concentrations of compound 5c or 0.1% DMSO for 24 h. Then, the cells were digested with 0.25% trypsin (without EDTA) and were washed twice with PBS, fixed in 70% ethanol overnight, and stained with PI ([…], Sigma) plus 0.2 mg/mL of DNase-free RNase A (Qiagen) for 20 minutes at room temperature. For the annexin V apoptosis assay, HeLa cells seeded in a 6-well plate (3 × 10^5 per well) were incubated with different concentrations of compound 5c or 0.1% DMSO for 24 h. Then, the cells were digested with 0.25% trypsin (without EDTA) and were washed twice with PBS. The cells were then collected and resuspended in 500 μL of the binding buffer. We added 5 μL of annexin V-FITC and PI each into the mixture in the dark. After 20 min of incubation, a flow cytometer (FACSCalibur; Becton Dickinson, Franklin Lakes, NJ, USA) was used to detect apoptosis (FITC Ex/Em = 488/525 nm and PI Ex/Em = 535/615 nm). […]
In general terms: A flow cytometer gives signals particle by particle.

A further assay has as its target recombinant STAT3 (Homo sapiens, UniProt P40763). Put plainly: Biolayer interferometry (BLI) assay. To be noted: 5c 7.81 to 250 μM, 25 °C, read-out: binding affinity (KD). Here is the method:
To confirm that compound 5c is a direct STAT3 inhibitor, a BLI (Biolayer interferometry) analysis was performed. Briefly, recombinant STAT3 with a His-tag was immobilized on SSA biosensors, and the dissociation constants were determined by measuring the binding to serial dilutions of 5c at concentrations ranging from 7.81 to 250 μM (Figure 10A). The signal was collected, and the kinetic affinity was calculated by the software. The steady-state curve reaches saturation (Figure 10B).
Purified recombinant STAT3 proteins were biotinylated using the EZ-Link biotinylation reagent (Thermo Fisher Scientific). Briefly, the protein and biotinylation reagent were mixed with a 1:1 molar ratio in PBS at 4 °C. Low biotinylation reagent concentration was applied to avoid protein over-biotinylation. These reaction mixtures were incubated at room temperature for 30 min to allow for the completion of the reaction. Reaction mixture was then dialyzed using 10K MWCO dialysis cassettes (Thermo Fisher Scientific) to remove unreacted biotinylation reagent.
BLI experiments were performed using an OctetRED96 instrument from ForteBio. All assays were run at 25 °C with continuous 1000 RPM shaking. […] The resulting data were analyzed based on a 1:1 binding model from which the kon and koff values were obtained. After, the KD values were calculated.
(In general: In BLI a coated tip is dipped into the sample, and binding shifts an interference pattern.)

In another assay the test system is ROS in HeLa cells. Put plainly: Cellular ROS detection (DCFDA flow cytometry). Type of assay: cell-based, human. To be noted: 6, 9, 12 μM, 6 h. Here is the method:
To measure reactive oxygen species (ROS) production, 2′,7′-dichlorofluorescein diacetate (DCFDA) (Thermo Fisher Scientific, Waltham, MA, USA; D399) was used. DCFDA is a fluorogenic dye that, after diffusion into the cell, is oxidized by ROS into 2′,7′-dichlorofluorescein (DCF), a highly fluorescent compound that can be detected by fluorescence spectroscopy. To measure ROS production, HeLa cells were treated with compound 5c at 6 μM, 9 μM, and 12 μM for 6 h. Then, cells were washed with pre-warmed 1X PBS and were incubated at 37 °C with 10 μM of DCFDA for 30 min in PBS. Subsequently, the HeLa cells were washed and analyzed in FL-1 using a FACScalibur flow cytometer (BD, USA) and using CELL Quest software (BD Biosciences, San Jose, CA, USA). Live cells were gated according to their forward scatter (FSC) and side scatter (SSC) properties. For each analysis, 20,000 events were recorded.

Assay [1] relates to AKT phosphorylation in HeLa cells. Nature of the assay: Western blot, AKT phosphorylation. Type of assay: cell-based, human. Particulars: 6 h interval. How it is done:
Protein levels were determined by the standard Western blot assay. […] Cells harvested with trypsin were treated with 1× RIPA lysis buffer (50 mM Tris-HCl, pH 7.4, 150 mM NaCl, 0.25% deoxycholic acid, 1% NP-40, 1 mM ethylenediaminetetraacetate (EDTA), and protease inhibitor PMSF (Solarbio, Beijing, China) to extract the total proteins. Then, an aliquot of proteins from the total cell lysates (4–40 μg/lane) was separated using sodium dodecyl sulfate (8, 10, or 12%) polyacrylamide gel electrophoresis (BioRad Laboratories, Hercules, CA, USA). The aliquot was wet-transferred to a PVDF membrane (BioRad Laboratories, Hercules, CA, USA), blotted with primary antibodies (purchased from Cell Signaling Technology, Danvers, MA, USA) specific for the STAT3 (#12640), p-STAT3 (#9145), AKT (#4691), p-AKT (#4060), Bax (#5023), Bcl-xl (#2764), secondary isotype-specific antibodies (#7074) and glyceraldehyde-3-phosphate dehydro-genase (GAPDH, #2118) as the internal standard overnight; then, they were probed with secondary isotype-specific antibodies for another 2 h at 37 °C. The bound immuno-complexes were detected using a ChemiDOC XRS+ system (BioRad Laboratories, Hercules, CA, USA).
Background: A western blot detects proteins with antibodies after separation by electrophoresis.

Sequence of recombinant STAT3 (P40763 whole entry): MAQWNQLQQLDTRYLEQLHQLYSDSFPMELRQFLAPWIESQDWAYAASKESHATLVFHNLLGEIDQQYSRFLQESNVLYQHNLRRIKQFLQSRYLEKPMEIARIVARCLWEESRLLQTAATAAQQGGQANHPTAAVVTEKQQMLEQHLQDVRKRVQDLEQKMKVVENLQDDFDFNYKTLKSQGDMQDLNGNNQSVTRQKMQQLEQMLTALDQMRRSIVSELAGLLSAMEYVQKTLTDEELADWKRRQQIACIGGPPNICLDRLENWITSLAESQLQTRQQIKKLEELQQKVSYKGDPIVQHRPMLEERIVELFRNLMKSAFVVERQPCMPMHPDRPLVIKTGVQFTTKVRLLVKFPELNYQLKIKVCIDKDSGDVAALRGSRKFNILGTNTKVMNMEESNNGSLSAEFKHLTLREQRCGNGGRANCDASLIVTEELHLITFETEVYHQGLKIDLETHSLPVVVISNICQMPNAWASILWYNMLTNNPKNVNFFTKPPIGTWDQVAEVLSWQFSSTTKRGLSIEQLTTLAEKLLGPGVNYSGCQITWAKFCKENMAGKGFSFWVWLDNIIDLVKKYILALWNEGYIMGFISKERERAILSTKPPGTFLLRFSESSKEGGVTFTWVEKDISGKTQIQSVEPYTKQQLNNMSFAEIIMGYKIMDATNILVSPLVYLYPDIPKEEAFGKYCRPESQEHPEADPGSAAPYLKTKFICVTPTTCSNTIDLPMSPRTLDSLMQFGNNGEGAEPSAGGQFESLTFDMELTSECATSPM

The Kd is the equilibrium constant for the complex coming apart. For the compound `N#C/C(=C\c1ccc(C2=CC(=O)c3ccccc3C2=O)o1)C(=O)NCCN1CCOCC1` [Compound 5c, (E)-2-cyano-3-(5-(1,4-dioxo-1,4-dihydronaphthalen-2-yl)furan-2-yl)-N-(2-morpholinoethyl)acrylamide], in the assay on HeLa cells, the “HeLa cell population in the G2/M phase” value is 23.88%. The dissociation constant Kd at recombinant STAT3 stood at 13 µM. Also, the “level of ROS in cancer cells” value in the assay with ROS in HeLa cells was “significantly increased”. Moreover, the “phosphorylation level of AKT” value in assay [1] is recorded as “effectively inhibited”.
